Source: patent publication US20220143128A1, “METHODS FOR TREATING TRAUMATIC BRAIN INJURY” (BCell Solutions, Inc., priority 2018, published 2022)
Entries after “also recorded” stand apart in the source; their conditions may differ.

How the values were obtained:
[1] = test system: cell surface CLIP on immune cells in the spleen; assay: Dose response of CD74 cleavage inhibitors on cell surface CLIP in the spleen after FPI; assay type: in vivo; settings: for cell surface CLIP on immune cells in the spleen / optimal dose to reduce CLIP after FPI: administered 30 min after FPI, spleen at 1 day post-FPI
Experimental: FIGS. 5A-5C is a set of bar graphs showing a dose response curve of inhibitors of various specific mechanisms of cleavage of full-length CD74 into CLIP 24 hours after FPI.
In addition to inhibiting MIF-binding to CD74, we have reduced the level of CLIP by inhibiting the distinct mechanisms by which CD74 is cleaved. Drugs that inhibit CD74 cleavage have been administered 30 min after FPI and the levels of CLIPs in the spleen have been assessed at 1 day post-FPI. […] We also found, using the proteasomal inhibitor, Bortezomib (PS341), that this compound was most efficacious at reducing cell-surface CLIP on B cells at 0.1 mg·kg, i.p. (FIG. 5B). Finally, Cystatin S is an inhibitor of Cathepsin S, which cleaves CD74 in B cells, dendritic cells, and macrophages^11,12. […] The optimal dosage is 50 mg/kg (FIG. 5C). At concentrations greater than 50 mg/kg, the compound appeared to be toxic under the tested conditions.

[2] = test system: CLIP+ B cells in the brain; assay: Brain flow cytometry for CLIP+ B cells after fluid percussion injury (FPI); assay type: in vivo, mouse
Experimental: The contributions of full-length cell-surface CD74 and its proteolytic products (CLIPs) in the pathogenic mechanisms that follow TBI were assessed. First, we determined if full-length CD74 on B cells was altered after fluid percussion injury (FPI) in an FPI model of TBI. A mouse model of TBI was produced and splenoctyes from those mice were isolated following FPI. The model, referred to as the “fluid percussion injury model”, is referenced in Tobin et al Acta Neuropathologica Communications 2014. Splenocytes were stained with anti-CD19 for B cells and counterstained with anti-CD74.
In order to address the innate immune components of CD74, a series of experiments in which MIF-binding to CD74 was antagonized at 30 min after FPI were performed. MIF mRNA levels are elevated after TBI. This occurs as a part of the innate immune response, via MIF-binding to, and signaling through cell surface CD74^35. We utilized ISO1, a small molecule that inhibits MIF-binding to CD74, to determine whether inhibition of MIF-binding would alter FPI-induced, CLIP-related cellular (FIG. 2) and neuroanatomical outcomes (FIGS. 3 and 4). ISO1 was administered at 30 mins after FPI and performed brain flow cytometry to assess what percent of leukocytes are CLIP+ B cells. It should be noted that less than 0.001 B cells enter the brain in naïve mice so they are not included in the graph.

[3] = test system: FJC-labeled cells in the perilesion area; assay: Fluorojade C (FJC) histology of neurodegeneration in peri-injury cortex after FPI; assay type: in vivo, mouse; settings: 10 mg/kg at 30 mins after FPI; 3 days after FPI
Experimental: FIG. 3A is a photomicrograph depicting FJC-staining in the peri-lesion area of a mouse treated with DMSO 30 mins after FPI. 3B is a comparative photomicrograph from a mouse treated with ISO1 at 30 mins after FPI. […] N=6 per group.
We assessed the effects of 10 mg/kg of ISO1 administered at 30 mins after FPI on neurodegeneration (FIG. 3), and the astrocytic response (FIG. 4), in peri-injury cortex, at 3 days after FPI.

GFAP+ astrocytes = assay: GFAP-labeling of the astrocytic response in perilesion cortex after FPI; assay type: in vivo, mouse; settings: treatment at 30 mins after FPI (ISO1 10 mg/kg), 3 days after FPI
CLIPs in MHCII = settings: treatment with Cystatin S; literature reference; cited from earlier work

## CC(C)C[C@H](NC(=O)[C@H](Cc1ccccc1)NC(=O)c1cnccn1)B(O)O [Bortezomib]
[1]; i.p., 30 min after FPI, 24 hours after FPI
  dose most efficacious at reducing cell-surface CLIP on B cells: 0.1 mg·kg

## C[C@H]1CCC/C=C/[C@@H]2C[C@H](O)C[C@H]2[C@H](O)/C=C/C(=O)O1 [Brefeldin A]
[1]
  cell surface CLIP on immune cells in the spleen: reduces cell surface CLIP on immune cells in the spleen
  optimal dose to reduce CLIP after FPI: 5 mg/kg

## COC(=O)CC1CC(c2ccc(O)cc2)=NO1 (centres unmarked) [ISO1, 4,5-Dihydro-3-(4-hydroxyphenyl)-5-isoxazoleacetic acid methyl ester]
[2]; administered at 30 min after FPI, brain at 24 hrs after FPI
  percent of CLIP+ B cells in the brain: significantly reduced the percentage of CLIP+ B cells in the brain; also recorded: reduced the percent of B cells that express CLIP in the brain
[2]; at 30 mins after FPI
  dose providing the most significantly robust decrease in the percent of CLIP+ B cells entering the brain: 10 mg/kg
[3]
  neurodegeneration (total number of FJC-labeled cells in the perilesion area): no effect on neurodegeneration; also recorded: no effect on the total number of FJC-labeled cells
GFAP+ astrocytes
  astrocytic response (GFAP-labeling) in perilesion cortex: significantly reduced the peak astrocyte response; also recorded: significantly reduced GFAP-labeling

B1: Cystatin S: inhibitor of Cathepsin S, which cleaves CD74 in B cells, dendritic cells, and macrophages (protein, UniProt P01036 21-141, looked up)
Cystatin-S: SSSKEENRIIPGGIYDADLNDEWVQRALHFAISEYNKATEDEYYRRPLQVLRAREQTFGGVNYFFDVEVGRTICTKSQPNLDTCAFHEQPELQKKQLCSFEIYEVPWEDRMSLVNSRCQEA
CLIPs in MHCII
  level of CLIPs in MHCII: reduces the level of CLIPs in MHCII
[1]; FPI mice, under the tested conditions
  concentrations at which the compound appeared to be toxic: greater than 50 mg/kg
[1]
  cell surface CLIP on immune cells in the spleen: reduction in immune cell-surface CLIP; also recorded: reduced immune cell-surface CLIP
  optimal dose to reduce CLIP after FPI: 50 mg/kg
